# Values quoted from earlier work, collected in US20110015245A1, “BENDAMUSTINE AMPHIPHILIC CATIONIC COMPOSITIONS” (priority 2009, published 2011).
# Counter-ions that a name gives are not always drawn.
# Details: 23° C.
structure (smiles),measurement,value
Cn1c(CCCC(=O)O)nc2cc(N(CCCl)CCCl)ccc21 [bendamustine hydrochloride],time stable in saline solution,9 h
